Assay results published in ChEMBL document CHEMBL1144668, “Mono- and dialkyl isoprenoid bisphosphonates as geranylgeranyl diphosphate synthase inhibitors” (Bioorg Med Chem, 2008).
Activity calls are given as the source filed them. The calls are words filed in the database; no cut-off is given here.

System: K562
Assay: Inhibition of Ras farnesylation in human K562 cells after 24 hrs by Western blot
Type: functional, cell-based

| Compound | Activity |
| --- | --- |
| CC(C)=CCC/C(C)=C\CC(C/C=C(\C)CCC=C(C)C)(P(=O)(O)O)P(=O)(O)O | inactive |
| CC(C)=CCCC(C)=CCC(CC=C(C)CCC=C(C)C)(P(=O)(O)O)P(=O)(O)O | inactive |
